Laboratory results as given in PMC2846816 (Arthritis and rheumatism, 2009).
Where a name gives a salt, the structure may show the parent alone. Read-outs that look alike come from different tables or passages of the source. One block for each compound: values may come before it.

Key:
Assay in all cases: Fura-2 Ca2+ influx
Assay type in all cases: cell-based
TRPV4 [1] = target: T1, TRPV4 (Sus scrofa, UniProt B3VP30)
TRPV4 [2] = target: T1, TRPV4; remark: listed apart in the source
TRPV4 [3] = target: T1, TRPV4; remark: listed apart in the source

T1 sequence (B3VP30 1-871): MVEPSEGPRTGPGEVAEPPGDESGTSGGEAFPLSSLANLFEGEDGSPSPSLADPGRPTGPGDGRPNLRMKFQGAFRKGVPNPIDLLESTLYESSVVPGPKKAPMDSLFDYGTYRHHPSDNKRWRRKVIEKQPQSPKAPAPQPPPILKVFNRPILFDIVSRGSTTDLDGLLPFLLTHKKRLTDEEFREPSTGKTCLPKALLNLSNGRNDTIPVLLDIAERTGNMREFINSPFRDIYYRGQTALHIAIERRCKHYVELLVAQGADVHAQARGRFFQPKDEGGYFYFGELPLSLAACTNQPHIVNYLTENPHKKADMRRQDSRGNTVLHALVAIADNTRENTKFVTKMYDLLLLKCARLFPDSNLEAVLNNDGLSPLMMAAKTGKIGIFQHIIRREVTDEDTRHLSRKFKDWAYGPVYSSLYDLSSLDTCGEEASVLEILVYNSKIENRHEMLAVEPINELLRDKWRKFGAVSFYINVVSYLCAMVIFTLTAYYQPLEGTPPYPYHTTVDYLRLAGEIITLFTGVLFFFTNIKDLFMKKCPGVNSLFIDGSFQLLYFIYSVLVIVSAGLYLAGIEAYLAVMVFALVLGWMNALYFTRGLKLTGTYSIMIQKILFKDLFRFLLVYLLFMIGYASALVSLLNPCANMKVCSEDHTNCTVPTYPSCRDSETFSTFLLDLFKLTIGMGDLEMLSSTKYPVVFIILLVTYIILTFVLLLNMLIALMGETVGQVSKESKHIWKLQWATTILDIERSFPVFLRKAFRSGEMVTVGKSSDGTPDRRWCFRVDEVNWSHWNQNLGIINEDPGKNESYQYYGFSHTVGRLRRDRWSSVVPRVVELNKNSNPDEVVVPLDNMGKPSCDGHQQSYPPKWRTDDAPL

Structure (SMILES): CCCCCCCCCC(=O)O[C@@H]1[C@@H](C)[C@@]2(O)[C@@H](C=C(CO)C[C@@]3(O)C(=O)C(C)=C[C@@H]23)[C@@H]2C(C)(C)[C@]12OC(=O)CCCCCCCCC [4αPDD]
EC50 (TRPV4 [1]): ~2 µM

IC50 (TRPV4 [2]): ~0.6 µM
Structure (SMILES): CN(CCc1ccc(Nc2ncc(-c3cccnc3)s2)cc1)Cc1ccccc1 [GSK205, N-(4-{2 [methyl(phenylmethyl)amino]ethyl}phenyl)-5-(3-pyridinyl)-1,3-thiazol-2-amine hydrobromide]

Structure (SMILES): Cl.Cl.Cl.Cl.Cl.Cl.N.N.N.N.N.N.N.N.N.N.N.N.N.N.[O-2].[O-2].[Ru+3].[Ru+3].[Ru+4] [Ruthenium Red]
IC50 (TRPV4 [3]): ~0.005 µM
